Data as given in patent publication US10208030B2, “GPR119 agonist compounds” (Mankind Pharma Ltd., priority 2016, dated 2019).

Key:
Male SD rats = assay: Oral glucose tolerance test in Sprague-Dawley rats; type: in vivo; conditions: 3 mpk and 10 mpk oral
Procedure: (§1) Male SD rats (8-10 weeks) were grouped based on basal glucose levels and animals were fasted for 16 hours. Glucose level of each animal was estimated in blood collected from tail vein before animals were dosed orally with 0.5% Tween 80 and 0.5% NaCMC (vehicle control) and compounds at 3 and 10 mpk (n=5). After 30 minutes of compound dosing, blood glucose was again estimated and 2 g/kg/10 ml (20%) of Glucose solution was administered orally to all the animals. Blood glucose was estimated at 15, 30, 60, 90 and 120 minutes time points after glucose administration. Accu-Check active blood glucose meter was utilised for estimation of blood from tail vein.
Glucose reduction observed in animals treated with GPR119 agonists is represented in terms of % AUC reduction. A greater glucose reduction in oral glucose tolerance test indicates the compound's efficacy in this rodent species.

hGPR119 = target: T1, hGPR119 (Homo sapiens, UniProt Q8TDV5); assay: In vitro cyclic AMP assay (Cisbio HTRF) in CHO-hGPR119 cells; type: cell-based; conditions: cAMP; for activation at 1 µM: 1 h, 60 min, read-out: Induction (% induction at 1 μM)
T1 construct: expressed in transfected cells; host or cells: CHO cells (CHO-hGPR119)
T1 sequence (Q8TDV5 1-335): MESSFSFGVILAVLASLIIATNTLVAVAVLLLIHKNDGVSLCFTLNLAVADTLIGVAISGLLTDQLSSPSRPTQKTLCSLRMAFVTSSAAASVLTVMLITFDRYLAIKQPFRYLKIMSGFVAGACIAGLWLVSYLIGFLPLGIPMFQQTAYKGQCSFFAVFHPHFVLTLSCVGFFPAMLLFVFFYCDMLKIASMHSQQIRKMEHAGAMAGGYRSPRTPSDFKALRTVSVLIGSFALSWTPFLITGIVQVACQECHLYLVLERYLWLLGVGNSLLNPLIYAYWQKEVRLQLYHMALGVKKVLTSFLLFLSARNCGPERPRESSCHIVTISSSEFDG
Method in brief: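 Cells plated at 5000/well and exposed to test compound dose series for 60 min at room temperature with 1 mM IBMX and 0.5% DMSO (final). Lysis with anti-cAMP antibody/d2-cAMP detection reagents, 1 h at room temperature; HTRF read at 665/620 nm (337 nm excitation); EC50 from concentration-response.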

Male C57BL/6 mice = assay: Oral glucose tolerance test in C57BL/6 mice; type: in vivo; conditions: 3 mpk and 10 mpk oral
Procedure: as §1, with “C57BL/6 mice” for “SD rats”
Glucose reduction observed in animals treated with compounds of present invention is represented in terms of % AUC reduction. A greater glucose reduction in oral glucose tolerance test indicates the compound's efficacy in this rodent species.

| activation at 1 µM (hGPR119) [%] | EC50 (hGPR119; class symbols, legend not given) | SMILES | glucose reduction (% AUC reduction) in oral glucose tolerance test (Male SD rats) | glucose reduction (% AUC reduction) in oral glucose tolerance test (Male C57BL/6 mice) |
| --- | --- | --- | --- | --- |
| 84 | – | CC(C)OC(=O)N1CCC(C(C)Oc2nn3cc(-c4ccc(S(C)(=O)=O)cc4F)nc3s2)CC1 (stereo not shown) [Compound 1101, Isopropyl 4-(1-(6-(2-fluoro-4-(methylsulfonyl)phenyl)imidazo[2,1-b][1,3,4]thiadiazol-2-yloxy)ethyl)piperidine-1-carboxylate] | significant dose dependent glucose reduction | significant dose dependent glucose reduction |
| 70 | A++ | CC(C)OC(=O)N1CCC([C@H](C)Oc2nn3cc(-c4ccc(S(C)(=O)=O)cc4F)nc3s2)CC1 [Compound 1108, isopropyl 4-((S)-1-(6-(2-fluoro-4-(methylsulfonyl)phenyl)imidazo[2,1-b][1,3,4]thiadiazol-2-yloxy)ethyl)piperidine-1-carboxylate] | significant dose dependent glucose reduction | significant dose dependent glucose reduction |
| 55 | – | CNS(=O)(=O)c1ccc(-c2cn3nc(OC(C)C4CCN(c5nc(C(C)C)no5)CC4)sc3n2)c(F)c1 (stereo not shown) [Compound 1109, 3-fluoro-4-(2-(1-(1-(3-isopropyl-1,2,4-oxadiazol-5-yl)piperidin-4-yl)ethoxy)imidazo[2,1-b][1,3,4]thiadiazol-6-yl)-N-methylbenzenesulfonamide] | significant dose dependent glucose reduction | significant dose dependent glucose reduction |
